Assay results published in patent US20250091989A1, “SMALL MOLECULE PROTEIN SYNTHESIS MODULATORS” (Interdict Bio, Inc., priority 2023, published 2025).

Assays:
Assay type in all cases: biochemical
Conditions in all cases: HeLa S3 lysate, sfGFP/mCherry ratio, 2 hrs at 30° C.
MYC = test: In vitro transcription-translation (IVTT) reporter assay, MYC test sequence
Text: (§1) All reporter constructs have been cloned into the pT7CFE1-CHis plasmid (ThermoFisher #88860) using Gibson assembly procedures (NEB #E2611L). The parental pT7CFE1-CHis plasmid contains an EMCV IRES at the 5′UTR for translation initiation, a multiple-cloning site (MCS) for gene insertion, an optional C-terminal His-epitope tag, and polyA sequence in the 3′UTR to regulate mRNA stability. All reporters are designed to be inserted at the MCS to include a red fluorescent protein (mCherry), P2A self-cleaving peptide which releases the preceding mCherry protein product, and a fusion open reading frame containing a 3×FLAG epitope, a peptide sequence of interest (TEST), and green fluorescent protein (sfGFP).
(§2) Construct Plasmid Preparation: All plasmids are isolated from MACH1 cells (ThermoFisher) grown overnight in ampicillin-containing luria broth, and purified using ZymoPure Express Plasmid Midiprep Kit (Zymo Research). Constructs are sequenced verified and diluted to a working concentration of 110 ng/μL.
(§3) HeLa S3 Lysate Preparation: HeLa S3 cell pellets are acquired from Ipracell/Ipratech (Belgium) and shipped as 4 mL frozen cell pellets on dry ice for storage at −80° C. until use. The procedure for lysate preparation is as follows. Prepare 1× Lysis Buffer, cold and stored on ice:
(§4) Each preparation takes 8 cell pellets (4 ml packed volume each, approximately 1.0×10^9 cells per pellet). Thaw cell pellets from −80° C. on ice for 90 mins. Lay pellets horizontally on top of the ice and rotate every 30 mins to ensure even thawing. Once thawed, add 4 mL of cold lysis buffer to each pellet, and using a serological pipet, gently pipet up and down to break up clumps. Incubate resuspended cells in ice for an additional 30 mins (plunged into ice). During 30 min incubation, rinse and RNase-zap (Ambion) glass dounces (use loose pestle “A”), gently dry and place on ice until needed. Prepare RNase-free Eppendorf tubes for spinning and for batch storage. Add batch labels to 1.5-1.7 mL RNase-free microcentrifuge tubes (labeling scheme below). Each batch will have an extra 1.5-1.7 mL RNase-free microcentrifuge tube for 40 μL of lysate, label the top of this tube (labeling scheme below). After 30 min incubation, transfer all 8 mL of cell pellet to dounce. Cell lysis is complete after douncing 100 times. Aliquot cell lysis into 1.5-1.7 mL temporary-microcentrifuge tubes. Place tubes in centrifuge with “fins” out, and spin at 1,200 xg for 5 mins. After the first spin use a 1 mL pipet to resuspend each tube and repeat spin. This acts as an additional lysis step, is more vigorous and increases lysate yield. During second spin get liquid N2 and a fresh conical tube on ice.
(§5) After spin is complete, transfer supernatant (lysate) from microcentrifuge tubes into the 50 mL conical tube and keep on ice. Repeat steps 10-14 for all other cell pellets until completed. Once all cell lysate has been transferred to the 50 mL conical tube pipet to mix so the solution is homogenous. Transfer 1 mL of lysate into batch-labeled microcentrifuge tubes and flash freeze in liquid nitrogen. Be sure to pipet up and down to mix throughout transfer step. Place all tubes in the […] for long-term storage.
(§6) In vitro transcription-translation assay setup: Each assay includes a master mix containing lysate and shared components, a 96-well plate containing compound titrations for testing, a 96-well DNA plate with reporter constructs to be tested, 96-well skirted PCR plates, and 96-well flat-bottom, black, fluorescent assay plates. […]

KRAS G12D = test: In vitro transcription-translation (IVTT) reporter assay, KRAS G12D test sequence
Text: as §1, §2, §3, §4, §5, §6

ALK = test: In vitro transcription-translation (IVTT) reporter assay, ALK test sequence
Text: as §1, §2, §3, §4, §5, §6

Structure (SMILES) | IC50 (MYC) [µM] | IC50 (KRAS G12D) [µM] | IC50 (ALK) [µM]
COc1ccc(C[C@H]2NC[C@H](O)[C@H]2OC(=O)C2CC3(CNC3)C2)cc1 [V0108, (2R,3S,4S)-4-hydroxy-2-[(4-methoxyphenyl)methyl]pyrrolidin-3-yl 2-azaspiro[3.3]heptane-6-carboxylate] | > 30 | > 30 | –
COc1ccc(C[C@H]2NC[C@H](O)[C@H]2OC(=O)Cc2ccccc2)cc1 [V0110, (2R,3S,4S)-4-hydroxy-2-[(4-methoxyphenyl)methyl]pyrrolidin-3-yl 2-phenylacetate] | < 10 | < 10 | –
COc1ccc(C[C@H]2NC[C@H](O)[C@H]2OC(=O)[C@H]2CN(Cc3ccccc3)CC23CNC3)cc1 [V186718, (2R,3S,4S)-4-hydroxy-2-[(4-methoxyphenyl)methyl]pyrrolidin-3-yl (8R)-6-benzyl-2,6-diazaspiro[3.4]octane-8-carboxylate] | – | > 30 | > 30
COc1ccc(C[C@H]2NC[C@H](O)[C@H]2OC(=O)C2CCOCC2)cc1 [V186763, (2R,3S,4S)-4-hydroxy-2-[(4-methoxyphenyl)methyl]pyrrolidin-3-yl oxane-4-carboxylate] | – | > 30 | > 30
COc1ccc(C[C@H]2NC[C@H](O)[C@H]2OC(=O)C2CC(O)C2)cc1 (stereo partly shown) [V186765] | < 10 | 10 to 20 | –
COc1ccc(C[C@H]2NC[C@H](O)[C@H]2OC(=O)C2CCCS2)cc1 (stereo partly drawn) [V186774, (2R,3S,4S)-4-hydroxy-2-[(4-methoxyphenyl)methyl]pyrrolidin-3-yl thiolane-2-carboxylate] | 20 to 30 | > 30 | –
CCCC(CCC)C(=O)O[C@@H]1[C@@H](O)CN[C@@H]1Cc1ccc(OC)cc1 [V186780] | – | > 30 | –
COc1ccc(C[C@H]2NC[C@H](O)[C@H]2OC(=O)C2(N)CCCC2)cc1 [V186782, (2R,3S,4S)-4-hydroxy-2-[(4-methoxyphenyl)methyl]pyrrolidin-3-yl 1-aminocyclopentane-1-carboxylate] | > 30 | – | > 30
CC(=O)O[C@@H]1[C@@H](O)CN[C@@H]1Cc1ccc(-c2ccccc2)cc1 [V186811] | < 10 | < 10 | –
COc1ccc(C[C@H]2NC[C@H](O)[C@H]2OC(=O)[C@H]2CC[C@@H](O)CC2)cc1 [V186822, (2R,3S,4S)-4-hydroxy-2-[(4-methoxyphenyl)methyl]pyrrolidin-3-yl (1 s,4 s)-4-hydroxy cyclohexane-1-carboxylate] | – | > 30 | –
COc1ccc(C[C@H]2NC[C@H](O)[C@H]2OC(=O)[C@H]2CC[C@@H](O)CC2)cc1 [V186823, (2R,3S,4S)-4-hydroxy-2-[(4-methoxyphenyl)methyl]pyrrolidin-3-yl (1 s,4 s)-4-hydroxy cyclohexane-1-carboxylate] | > 30 | – | 20 to 30
COc1ccc(C[C@H]2NC[C@H](O)[C@H]2OC(=O)CC[C@H]2CN(C)CCN2C)cc1 [V186854, (2R,3S,4S)-4-hydroxy-2-[(4-methoxyphenyl)methyl]pyrrolidin-3-yl 3-[(2S)-1,4-dimethylpiperazin-2-yl]propanoate; trifluoroacetic acid] | > 30 | – | > 30
COc1ccc(C[C@H]2NC[C@H](O)[C@H]2OC(=O)C2CSSC2)cc1 [V186868, (2R,3S,4S)-4-hydroxy-2-[(4-methoxyphenyl)methyl]pyrrolidin-3-yl 1,2-dithiolane-4-carboxylate; trifluoroacetic acid] | – | > 30 | > 30
COc1ccc(C[C@H]2NC[C@H](O)[C@H]2OC(=O)CCC2C(=O)N(C)CC(=O)N2C)cc1 (stereo partly drawn) [V186871, (2R,3S,4S)-4-hydroxy-2-[(4-methoxyphenyl)methyl]pyrrolidin-3-yl 3-(1,4-dimethyl-3,6-dioxopiperazin-2-yl)propanoate; trifluoroacetic acid] | 20 to 30 | > 30 | –
COc1ccc(C[C@H]2NC[C@H](O)[C@H]2OC(=O)CCn2ccc(=O)[nH]c2=O)cc1 [V186992, (2R,3S,4S)-4-hydroxy-2-[(4-methoxyphenyl)methyl]pyrrolidin-3-yl 3-(2,4-dioxo-3H-pyrimidin-1-yl)propanoate] | < 10 | – | < 10
CC(=O)O[C@@H]1[C@@H](O)CN[C@@H]1Cc1ccc(-c2nn[nH]n2)cc1 [V187008, (2R,3S,4S)-4-hydroxy-2-{[4-(2H−1,2,3,4-tetrazol-5-yl)phenyl]methyl}pyrrolidin-3-yl acetate; trifluoroacetic acid] | < 10 | – | < 10
COc1ccc(C[C@H]2NC[C@H](O)[C@H]2OC(=O)Cc2cccs2)cc1 [V187050, (2R,3S,4S)-4-hydroxy-2-[(4-methoxyphenyl)methyl]pyrrolidin-3-yl 2-(thiophen-2-yl)acetate] | < 10 | – | < 10
COc1ccc(C[C@H]2NC[C@H](O)[C@H]2OC(=O)Cc2nccs2)cc1 [V187052, (2R,3S,4S)-4-hydroxy-2-[(4-methoxyphenyl)methyl]pyrrolidin-3-yl 2-(1,3-thiazol-2-yl)acetate; trifluoroacetic acid] | < 10 | – | < 10
COc1ccc(C[C@H]2NC[C@H](O)[C@H]2OC(=O)Cc2ccc(F)cc2)cc1 [V187054, (2R,3S,4S)-4-hydroxy-2-[(4-methoxyphenyl)methyl]pyrrolidin-3-yl 2-(4-fluorophenyl) acetate] | < 10 | < 10 | –
COc1ccc(C[C@H]2NC[C@H](O)[C@H]2OC(=O)CN2CC3(C2)CC(F)(F)C3)cc1 [V187067, (2R,3S,4S)-4-hydroxy-2-[(4-methoxyphenyl)methyl]pyrrolidin-3-yl 2-{6,6-difluoro-2-azaspiro[3.3]heptan-2-yl}acetate] | – | 10 to 20 | < 10
COc1ccc(C[C@H]2NC[C@H](O)[C@H]2OC(=O)CCc2ccccc2)cc1 [V187069, (2R,3S,4S)-4-hydroxy-2-[(4-methoxyphenyl)methyl]pyrrolidin-3-yl 3-phenylpropanoate] | < 10 | – | < 10
COc1ccc(C[C@H]2NC[C@H](O)[C@H]2OC(=O)CCc2cn(C)cn2)cc1 [V187096, (2R,3S,4S)-4-hydroxy-2-[(4-methoxyphenyl)methyl]pyrrolidin-3-yl 3-(1-methylimidazol-4-yl)propanoate; trifluoroacetic acid] | < 10 | – | < 10
COc1ccc(C[C@H]2NC[C@H](O)[C@H]2OC(=O)Cc2ccc(N3CCOCC3)cc2)cc1 [V187134, (2R,3S,4S)-4-hydroxy-2-[(4-methoxyphenyl)methyl]pyrrolidin-3-yl 2-[4-(morpholin-4-yl)phenyl]acetate] | < 10 | – | < 10
COc1ccc(C[C@H]2NC[C@H](O)[C@H]2OC(=O)Cc2ccc(F)c(Cl)c2)cc1 [V187164, (2R,3S,4S)-4-hydroxy-2-[(4-methoxyphenyl)methyl]pyrrolidin-3-yl 2-(3-chloro-4-fluorophenyl)acetate; trifluoroacetic acid] | < 10 | < 10 | –
COc1ccc(C[C@H]2NC[C@H](O)[C@H]2OC(=O)COC2CC2)cc1 [V187169, (2R,3S,4S)-4-hydroxy-2-[(4-methoxyphenyl)methyl]pyrrolidin-3-yl 2-cyclopropoxyacetate; trifluoroacetic acid] | < 10 | < 10 | –
COc1ccc(C[C@H]2NC[C@H](O)[C@H]2OC(=O)Cn2cnnc2)cc1 [V187181, (2R,3S,4S)-4-hydroxy-2-[(4-methoxyphenyl)methyl]pyrrolidin-3-yl 2-(1,2,4-triazol-4-yl)acetate] | 20 to 30 | – | < 10
COc1ccc(C[C@H]2NC[C@H](O)[C@H]2OC(=O)Cc2ccc(CC(C)C)cc2)cc1 [V187182, (2R,3S,4S)-4-hydroxy-2-[(4-methoxyphenyl)methyl]pyrrolidin-3-yl 2-[4-(2-methylpropyl)phenyl]acetate; trifluoroacetic acid] | > 30 | – | 10 to 20
